Measurements: patent publication US20220354894A1, “Cell Composition Comprising Radiolabled Mesenchymal Stem Cells, Use Thereof and Method for Preparing Radiolabeled Mesenchymal Stem Cells” (Boehringer Ingelheim Veterinary Medicine Belgium, priority 2019, published 2022)

Assays:
[1] = Whole body scintigraphy biodistribution after IV, IM, SC injection in dogs (Example 4); format: in vivo; conditions: dog
Protocol: Three different studies were performed. In a first study, the biodistribution of intravenously administrated equine peripheral blood-derived MSCs (ePB-MSCs) was evaluated in four dogs. In the second study, the biodistribution of intramuscularly and subcutaneously administrated ePB-MSCs was evaluated in four dogs. Finally, in a third study, the biodistribution of a higher dose of ePB-MSCs following intravenous administration was evaluated in three dogs.
Four healthy adult research dogs were included in the two first studies; three dogs from the second study were re-used for the third study. All dogs were purpose bred adult beagles (16-23 months). Two males and two females were included in the first two studies and one male and two female dogs were included in the third study. The dogs were housed in groups of 2, in a pen of 4 by 4 by 2 m (L×W×H) so permanent visual, olfactorial, tactile and auditive contact between dogs was possible. Toys were provided for the dogs to play with in their pen. Cleaning of the dog pens was performed daily. The floor was covered with wood shavings to improve lying comfort for the dogs. The animals were let out in dog runs to play and run for minimal 1 hour a day. After the study this minimal time was increased depending on the need of the dogs.
In the first study, each dog received two intravenous injections; first the dogs were injected with the control product: freshly eluted ^99mTc dissolved in DMEM and at least 7 days later they received a second injection with ^99mTc-labeled ePB-MSCs. For the second study, 4 injections were administered to each dog. The dogs first received an IM injection with the control product, next a SC with the control product, then an IM injection with the ^99mTc-labeled ePB-MSCs and finally a SC administration of the ^99mTc-labeled ePB-MSCs. At least 7 days separated each injection. In the third study, the three dogs received a single IV injection with ^99mTc-labeled ePB-MSCs.
The dogs were put under general anesthesia and positioned in sternal recumbency on the gamma camera before each injection. To obtain general anesthesia, the dogs were first sedated with dexmedetomidine (12-25 μg/kg IM), next induction was obtained with propofol (dosage on effect) and anesthesia was maintained with isoflurane 1.2-1.4% (on effect) in 100% oxygen following endotracheal intubation. The intravenous injection was administered through a 22-gauge catheter in one of the cephalic veins, the intramuscular injection was performed in the left quadriceps muscle and the subcutaneous injection was administered at the back of the neck.
A two-headed gamma camera, equipped with low energy high resolution collimators (GCA 7200 A; Toshiba) was used for the scintigraphic investigation. The whole body scan was obtained with the detectors of the SPECT scanner moving simultaneous dorsally and ventrally from head to tail of the dog over 10 minutes. All dogs were kept under general anesthesia during all the acquisitions. For all 3 studies, data collection of the first hour consisted of 6 successive acquisitions of each 10 minutes. The start of the first acquisition was simultaneous with injection of the radioactive compound and the dog remained in the same position for all 6 scans. Next, in the first study, total body scans (each lasting 10 minutes) were performed at 2 h, 4 h, 8 h, 12 h, 24 h and 36 h after placebo control and labeled ePB-MSCs administration using propofol (dosage on effect). For the second and the third study, 6 successive 10 minutes' total body scans performed during the first hour after injection were followed by total body scans (each lasting 10 minutes) at 6 h and 24 h after each injection. For all studies, a syringe with a known amount of radioactivity to calculate % injected dose (ID), was simultaneous scanned with the dog. Care was taken for the dog's re-positioning on the table, to avoid too much spatial deviation on the scans following the first hour scans. […]

[2] = Planar scintigraphy biodistribution after IV injection in healthy horses (Example 6); format: in vivo; conditions: horse
From the text: Four healthy adult horses (2 neutered male and 2 female horses, 7 to 19 years old) from two different breeds (2 Belgian warmblood and 2 French Trotter) were included in this study. All animals underwent a full veterinary examination before being included in the study and were stalled at least 2 days prior to the start of the study. During the study, the animals were housed in individual stables of 3.5 by 4 (L×W) according to normal housing procedures with water ad libitum and hay twice a day. During the study, a daily general clinical examination was performed (day 0-3). All horses received a total of two IV injections; the first consisted of free ^99mTc dissolved in DMEM which served as control. The second injection was administered three days later and consisted of ^99mTc-labelled ePB-MSC.
For the IV injections of the horses, a 18 G catheter was placed in the left jugular vein of each horse and sedation was achieved using detomidine hydrochloride (Domidine 10 mg/mL; Dechra, The Netherlands) 0.01 mg/kg body weight and butorphanol tartrate (butomidor 10 mg/mL; AST farma BV, Oudewater, Germany) 0.01 mg/kg body weight IV When required, detomidine hydrochloride (Domidine 10 mg/mL; Dechra) was added during the scan with a maximum of 0.002 mg/kg. The horses stood straight with all four limbs using a table to stabilize the head. On day 0, all four horses were IV injected with free ^99mTc dissolved in DMEM. Consequently, on day 3, all horses were IV injected with ^99mTc-labelled ePB-MSCs dissolved in DMEM as described above. Planar scintigraphy was performed 1 h and 6 h post-injection for both injections using a gamma camera (Equine HR, Medical Imaging Electronics) (matrix: 128×128; acquisition time: 60 seconds per time frame (60 frames); collimator: low energy high resolution (140 KeV, 15% symmetrical window); field of view: 600×410 mm). Following body parts were scanned: head, thorax and abdomen starting with the head, left thorax and left abdomen and continuing with the right abdomen and right thorax.
Distribution of the ^99mTc labelled ePB-MSCs and free ^99mTc was subjectively assessed through the whole body using Multimodality software (Nuclear diagnostics, Sweden). Different organs of interests were manually delineated for each horse at each time point: the lungs, bladder, stomach, kidney, parotid gland and thyroid. Radioactive counts per pixel were calculated for each organ of interest, decay corrected and divided by the initial injected radioactivity in the whole body to obtain a relative uptake value.

Structure (SMILES): [O]=[99Tc](=[O])(=[O])[O-] [control product, ^99mTc Pertechnetate]
- percentage of injected dose in right salivary gland ([1]; IV, 6 hours): 0.88%
- percentage of injected dose in stomach ([1]; IV, 6 hours): 8.98%
- percentage of injected dose in thyroid ([1]; IV, 6 hours): 0.61%
- percentage of injected dose in bladder ([1]; IV, 24 hours): 2.71%
- percentage of injected dose in heart ([1]; IV, 24 hours): 0.54%
- percentage of injected dose in left salivary gland ([1]; IV, 24 hours): 1.34%
- percentage of injected dose in liver ([1]; IV, 24 hours): 0.99%
- percentage of injected dose in lung ([1]; IV, 24 hours): 0.77%
- percentage of injected dose in right salivary gland ([1]; IV, 24 hours): 0.98%
- percentage of injected dose in stomach ([1]; IV, 24 hours): 5.02%
- percentage of injected dose in thyroid ([1]; IV, 24 hours): 0.24%
- percentage of injected dose at injection site ([1]; SC, 10 min): 27.27%
- percentage of injected dose in bladder ([1]; SC, 10 min): 0.13%
- percentage of injected dose in heart ([1]; SC, 10 min): 0.24%
- percentage of injected dose in left salivary gland ([1]; SC, 10 min): 0.12%
- percentage of injected dose in lung ([1]; SC, 10 min): 0.92%
- percentage of injected dose in right salivary gland ([1]; SC, 10 min): 0.13%
- percentage of injected dose in stomach ([1]; SC, 10 min): 0.53%
- percentage of injected dose in thyroid ([1]; SC, 10 min): 0.00%
- percentage of injected dose at injection site ([1]; SC, 60 min): 17.57%
- percentage of injected dose in bladder ([1]; SC, 60 min): 2.29%
- percentage of injected dose in heart ([1]; SC, 60 min): 1.61%
- percentage of injected dose in left salivary gland ([1]; SC, 60 min): 0.45%
- percentage of injected dose in lung ([1]; SC, 60 min): 4.86%
- percentage of injected dose in right salivary gland ([1]; SC, 60 min): 0.45%
- percentage of injected dose in stomach ([1]; SC, 60 min): 9.24%
- percentage of injected dose in thyroid ([1]; SC, 60 min): 0.00%
- percentage of injected dose at injection site ([1]; SC, 6 hours): 0.00%
- percentage of injected dose in bladder ([1]; SC, 6 hours): 2.75%
- percentage of injected dose in heart ([1]; SC, 6 hours): 1.61%
- percentage of injected dose in left salivary gland ([1]; SC, 6 hours): 1.44%
- percentage of injected dose in lung ([1]; SC, 6 hours): 4.57%
- percentage of injected dose in right salivary gland ([1]; SC, 6 hours): 1.33%
- percentage of injected dose in stomach ([1]; SC, 6 hours): 14.37%
- percentage of injected dose in thyroid ([1]; SC, 6 hours): 0.96%
- percentage of injected dose at injection site ([1]; SC, 24 hours): 0.00%
- percentage of injected dose in bladder ([1]; SC, 24 hours): 3.75%
- percentage of injected dose in heart ([1]; SC, 24 hours): 0.70%
- percentage of injected dose in left salivary gland ([1]; SC, 24 hours): 2.67%
- percentage of injected dose in lung ([1]; SC, 24 hours): 2.01%
- percentage of injected dose in right salivary gland ([1]; SC, 24 hours): 2.81%
- percentage of injected dose in stomach ([1]; SC, 24 hours): 7.32%
- percentage of injected dose in thyroid ([1]; SC, 24 hours): 0.61%
- organ with the highest uptake ([1]; all three injection routes, progressive increase until 4 to 6 hours): stomach
- organs with radioactivity uptake ([1]; intramuscular and subcutaneous administration): heart, lung, stomach, bladder, thyroid and salivary glands
- organs in which radioactivity accumulated ([1]; intravenous injection): heart, lung, liver, stomach, bladder, thyroid and salivary glands
- radioactivity in the intestines [2]: small activity
- accumulation in the kidneys ([2]; 1 h and 6 h post-injection): no kidney accumulation
- accumulation in the stomach ([2]; 1 h and 6 h post-injection): High accumulation
- radioactivity in the bladder ([2]; 1 h and 6 h post-injection): accumulation was higher
- uptake in the lungs ([2]; 1 h and 6 h post-injection): distinct radioactive uptake
- uptake in the parotid glands ([2]; 1 h and 6 h post-injection): high uptake
- uptake in the thyroid gland ([2]; 1 h and 6 h post-injection): very high accumulation
- organs in which accumulation was predominantly observed ([2]; 1 h post-injection scans): stomach, thyroid, bladder and parotid glands
